This is an account of results in ChEMBL document CHEMBL1128959, “Quinoline-substituted dihydroindoles as cysLT1 (LTD4 receptor) antagonists” (Bioorg Med Chem Lett, 1996).

A word on the pKB: it is −log10 of the KB, conventionally taken in molar units. As usually defined, the Ki is a measure of affinity in units of concentration, obtained from inhibition or displacement. Low values mean a stronger hold on the target, high ones a looser hold on the target. As a reminder, the Inhibition is the relative decrease from the control value, in per cent.

Test [1] deals with T1, Cysteinyl leukotriene receptor 1 (Cavia porcellus) (UniProt Q2NNR5).
T1 sequence (whole entry): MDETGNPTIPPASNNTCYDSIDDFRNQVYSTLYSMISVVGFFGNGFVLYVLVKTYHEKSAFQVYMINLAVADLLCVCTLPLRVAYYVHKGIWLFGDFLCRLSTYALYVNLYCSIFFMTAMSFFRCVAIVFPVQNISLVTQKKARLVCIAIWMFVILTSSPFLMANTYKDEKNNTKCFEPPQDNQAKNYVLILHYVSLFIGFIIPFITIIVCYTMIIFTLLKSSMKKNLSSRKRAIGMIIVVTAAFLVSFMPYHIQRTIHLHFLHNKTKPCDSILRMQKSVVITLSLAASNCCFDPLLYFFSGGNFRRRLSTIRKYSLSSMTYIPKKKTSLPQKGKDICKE
The test can be described thus: Compound was tested for its inhibitory activity against specific binding of [3H]LTD4 to guinea pig ileum. It counts as tissue-based.

Test [2] has as its target T2, Cysteinyl leukotriene receptor 1 (Cavia porcellus, UniProt Q2NNR5).
T2 sequence (Q2NNR5 whole entry): T1 sequence (whole entry)
The test can be described thus: Compound was tested for its inhibitory activity against specific binding of [3H]LTD4 to guinea pig lung membrane. The test is classed as tissue-based.

The target in test [3] is T1, Cysteinyl leukotriene receptor 1 (Cavia porcellus). The test is described as follows: Compound was tested for its inhibitory activity against specific binding of [3H]LTD4 to guinea pig trachea. It counts as tissue-based.
Test [4] relates to Cavia porcellus. The test can be described thus: Inhibition of aerosol administered LTD4-induced airway obstruction after oral administration in guinea pig 2 hr after administration. It counts as functional.
Test [5] has as its system Cavia porcellus. The test is described as follows: Inhibition of aerosol administered LTD4-induced airway obstruction after oral administration in guinea pig 6 hr after administration. It counts as functional.

Structures are written as SMILES.

Turning to `C(=C\c1ccc2ccccc2n1)/c1cccc(CN2CCc3cccc(CCc4nnn[nH]4)c32)c1`, in test [1], the negative logarithm of the KB (pKB) worked out at 8.6.
For `Clc1ccc2ccc(/C=C/c3ccc(CN4CCc5cccc(CCc6nnn[nH]6)c54)cc3)nc2c1`, the pKB in test [1] is 8.6. The affinity in test [2], expressed as Ki, was 31.6 nM.
For the molecule `c1cc(CCc2nnn[nH]2)c2c(c1)CCN2Cc1ccc(OCc2ccc3ccccc3n2)cc1`, the results for the negative logarithm of the KB (pKB) in test [3] and in test [1] were 7.9 and 8.3, respectively.
Take `Clc1ccc2ccc(COc3ccc(Cn4ccc5cccc(CCc6nnn[nH]6)c54)cc3)nc2c1`: the Inhibition in test [4] was determined as 16%.
On to `Clc1ccc2ccc(COc3ccc(CN4CCc5cccc(CCc6nnn[nH]6)c54)cc3)nc2c1`, for which the negative-log KB (pKB) in test [3] came out at 7.6; in test [1] it was 8.5. Besides, the results for the Inhibition in test [5] and in test [4] were 81% and 51%, respectively.
As for `Clc1ccc2ccc(COc3cccc(CN4CCc5cccc(CCc6nnn[nH]6)c54)c3)nc2c1`, the results for the pKB in test [3] and in test [1] were 7.8 and 8.4, respectively.
In the case of `Clc1ccc2ccc(/C=C/c3cccc(CN4CCc5cccc(CCc6nnn[nH]6)c54)c3)nc2c1`, the negative-log KB (pKB) was determined as 7 in test [3] and 8.6 in test [1]. For the same molecule, the results for the Inhibition in test [5] and in test [4] were 74% and 91%, respectively.
For the molecule `Clc1ccc2ccc(/C=C/c3cccc(Cn4ccc5cccc(CCc6nnn[nH]6)c54)c3)nc2c1`, the Inhibition is 21% in test [5] and 69% in test [4].
In turn, `Clc1ccc2ccc(/C=C/c3cccc(CN4CCc5cccc(OCc6nn[nH]n6)c54)c3)nc2c1` had a pKB in test [1] of 8.6. In test [2], this molecule had a Ki of 5.01 nM.
